Values of other authors in US7041851B2, “Fluorinated phenyl thiophenyl derivatives and their use for imaging serotonin transporters” (The Trustees of the University of Pennsylvania, priority 2002, dated 2006).

Biological target: T1, SERT (Rattus norvegicus, UniProt P31652)
T1 construct: from tissue; host or cells: rat brain in vivo (hypothalamus, striatum, hippocampus, cerebellum)
Conditions: rats, 11C-labelled; Huang et al., 2001b; cited from earlier work

T1 sequence (P31652 whole entry): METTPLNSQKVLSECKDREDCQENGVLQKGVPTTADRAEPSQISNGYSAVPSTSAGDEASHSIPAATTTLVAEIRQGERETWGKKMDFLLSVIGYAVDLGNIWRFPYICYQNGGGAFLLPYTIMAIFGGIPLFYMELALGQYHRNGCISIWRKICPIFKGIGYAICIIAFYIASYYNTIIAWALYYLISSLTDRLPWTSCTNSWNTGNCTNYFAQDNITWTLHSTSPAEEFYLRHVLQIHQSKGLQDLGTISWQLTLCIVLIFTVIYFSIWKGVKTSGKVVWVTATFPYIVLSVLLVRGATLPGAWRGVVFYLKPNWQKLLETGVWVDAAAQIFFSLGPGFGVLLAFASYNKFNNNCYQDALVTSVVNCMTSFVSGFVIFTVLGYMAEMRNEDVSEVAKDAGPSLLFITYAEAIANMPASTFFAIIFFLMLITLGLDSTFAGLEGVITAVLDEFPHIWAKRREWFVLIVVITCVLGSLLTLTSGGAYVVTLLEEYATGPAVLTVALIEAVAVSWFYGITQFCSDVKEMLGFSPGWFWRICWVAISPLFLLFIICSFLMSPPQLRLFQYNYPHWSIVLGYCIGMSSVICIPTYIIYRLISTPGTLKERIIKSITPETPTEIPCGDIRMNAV

CN([11CH3])Cc1ccccc1Sc1ccc(CF)cc1N [AFM]
Brain uptake and specific binding: excellent brain uptake and a high degree of specific binding
